17 compounds from patent US8367843B2, “Phenol derivative” (Fuji Yakuhin Co., Ltd., priority 2009, dated 2013) can be followed below.

Common to all, as to type: in vivo
The nature of data set [1]: Concentration of unchanged compound in urine in rat. To be noted: 3 mg/kg oral, fasted male Wistar/ST rats, urine collected for 4 hours after administration, HPLC. The procedure:
Concentration of Unchanged Compound in Urine in Rat
A test substance suspended in 0.5% MC was orally administered to two male Wistar/ST rats fasted for about 16 hours in a dose of 3 mg/kg. Immediately after administration, urine was collected for 4 hours. After completion of collection of urine, urine remaining in the bladder was completely excreted by pressing the abdomen of the rat. The concentration of an unchanged compound in urine was measured by HPLC and expressed by a molar concentration (μM).

Data set [2] relates to male Wistar/ST rats (pyrazinamide model). Kind of data set: Uricosuric action in rat pyrazinamide model. To be noted: urinary uric acid/creatinine ratio as percentage to control, test substance 30 mg/kg oral, 30 min after pyrazinamide 400 mg/kg, urine collected 2 to 3 hours after administration, read-out: Uricosuric action (control = 100). The procedure: Uricosuric Action in Rat Pyrazinamide Model
Pyrazinamide suspended in a 0.5% methyl cellulose solution (0.5% MC) was orally administered to 7- and 8-week-old male Wistar/ST rats (4 rats per group) fasted for about 16 hours in a dose of 400 mg/kg. After 30 minutes, a test substance suspended in 0.5% MC was orally administered in a dose of 30 mg/kg, and urine was collected for 1 hour in a range from 2 to 3 hours after administration. At the beginning of collection of urine and after completion of collection of urine, rats were forced to urinate by pressing the abdomen of the rat. The concentration of uric acid and that of creatinine in urine were measured by a kit, and a ratio of the concentration of uric acid to that of creatinine was used as an indicator of a uricosuric action. The action of each test substance was expressed by percentage to control.

Data set [3] has the same test system. Kind of data set: Uricosuric action in rat pyrazinamide model. To be noted: po, as above, but test substance 100 mg/kg.

Take `CSc1cc(C(=O)N2CS(=O)(=O)c3ccccc32)cc(C#N)c1O` [Example 15, 3-(3-cyano-4-hydroxy-5-methylsulfanylbenzoyl)-1,1-dioxo-2,3-dihydro-1,3-benzothiazole]: the “Concentration of unchanged compound in urine” value in data set [1] was 68.6 µM. In addition, in data set [2], the response vs control in vivo at 30 mg/kg was 204%.
Taken in the same sequence, the figures for `O=C(c1cc(F)c(O)c(Cl)c1)N1CS(=O)(=O)c2ccccc21` [Example 19, 3-(3-chloro-5-fluoro-4-hydroxybenzoyl)-1,1-dioxo-2,3-dihydro-1,3-benzothiazole] were 55.2 µM and 129%.
For the compound `CCc1cc(C(=O)N2CS(=O)(=O)c3ccccc32)cc(C#N)c1O` [Example 12, 3-(3-cyano-5-ethyl-4-hydroxybenzoyl)-1,1-dioxo-2,3-dihydro-1,3-benzothiazole], the “Concentration of unchanged compound in urine” value in data set [1] stood at 15.8 µM. Moreover, the response vs control in vivo at 30 mg/kg in data set [2] was determined as 187%.
In the same order, the values of `C#Cc1cc(C(=O)N2CS(=O)(=O)c3ccccc32)cc(C#N)c1O` [Example 14, 3-(3-cyano-5-ethynyl-4-hydroxybenzoyl)-1,1-dioxo-2,3-dihydro-1,3-benzothiazole] are 119 µM and 164%.
In the same order, the values of `O=C(c1cc(Cl)c(O)c(Cl)c1)N1CS(=O)(=O)c2ccccc21` [Example 1, 3-(3,5-dichloro-4-hydroxybenzoyl)-1,1-dioxo-2,3-dihydro-1,3-benzothiazole] are 9.8 µM and 169%.
As to `CSc1cc(C(=O)N2CS(=O)(=O)c3ccccc32)cc(Cl)c1O` [Example 21, 3-(3-chloro-4-hydroxy-5-methylsulfanylbenzoyl)-1,1-dioxo-2,3-dihydro-1,3-benzothiazole], in data set [1], the “Concentration of unchanged compound in urine” value is 1.9 µM. Besides, in data set [2], the response vs control in vivo at 30 mg/kg turned out to be 120%.
In the case of `CCc1oc2ccccc2c1C(=O)c1cc(Br)c(O)c(Br)c1` [Benzbromarone, reference compound], in data set [1], the “Concentration of unchanged compound in urine” value was determined as 0 µM. The response vs control in vivo at 30 mg/kg in data set [2] came to 114%.
As to `O=C(c1cc(Cl)c(O)c(C(F)(F)F)c1)N1CS(=O)(=O)c2ccccc21` [Example 18, 3-(3-chloro-4-hydroxy-5-trifluoromethylbenzoyl)-1,1-dioxo-2,3-dihydro-1,3-benzothiazole], the “Concentration of unchanged compound in urine” value in data set [1] worked out at 1 µM. Also, the response vs control in vivo at 30 mg/kg in data set [2] was found to be 202%.
In the same order, the values of `N#Cc1cc(C(=O)N2CS(=O)(=O)c3ccccc32)cc(Cl)c1O` [Example 7, 3-(3-chloro-5-cyano-4-hydroxybenzoyl)-1,1-dioxo-2,3-dihydro-1,3-benzothiazole] are 125 µM and 178%.
In the same order, the values of `N#Cc1cc(C(=O)N2CS(=O)(=O)c3ccccc32)cc(C(F)(F)F)c1O` [Example 4, 3-(3-cyano-4-hydroxy-5-trifluoromethylbenzoyl)-1,1-dioxo-2,3-dihydro-1,3-benzothiazole] are 51.8 µM and 201%.
Taken in the same sequence, the figures for `N#Cc1cc(C(=O)N2CS(=O)(=O)c3ccc(C(F)(F)F)cc32)cc(C(F)(F)F)c1O` [Example 38, 3-(3-cyano-4-hydroxy-5-trifluoromethylbenzoyl)-1,1-dioxo-5-trifluoromethyl-2,3-dihydro-1,3-benzothiazole] were 16.4 µM and 180%.
In the case of `CN(C)C(=O)c1cc(C(=O)N2CS(=O)(=O)c3ccccc32)cc(C(F)(F)F)c1O` [Example 27, 3-(3-dimethylcarbamoyl-4-hydroxy-5-trifluoromethylbenzoyl)-1,1-dioxo-2,3-dihydro-1,3-benzothiazole], the “Concentration of unchanged compound in urine” value in data set [1] is 30.6 µM. The response vs control in vivo at 30 mg/kg in data set [2] was determined as 146%.
As for `CCCN(CCC)S(=O)(=O)c1ccc(C(=O)O)cc1` [Probenecid, reference compound], the response vs control in vivo at 100 mg/kg in data set [3] turned out to be 171%. For the same compound, the “Concentration of unchanged compound in urine” value in data set [1] was 0 µM. The response vs control in vivo at 30 mg/kg in data set [2] came out at 111%.
Regarding `CCSc1cc(C(=O)N2CS(=O)(=O)c3ccccc32)cc(C#N)c1O` [Example 34, 3-(3-cyano-5-ethylsulfanyl-4-hydroxybenzoyl)-1,1-dioxo-2,3-dihydro-1,3-benzothiazole], the “Concentration of unchanged compound in urine” value in data set [1] worked out at 23.5 µM. The response vs control in vivo at 30 mg/kg in data set [2] was determined as 208%.
In the same order, the values of `N#Cc1cc(C(=O)N2CSc3ccccc32)cc(C(F)(F)F)c1O` [Example 5, 3-(3-cyano-4-hydroxy-5-trifluoromethylbenzoyl)-2,3-dihydro-1,3-benzothiazole] are 1.1 µM and 136%.
In the same order, the values of `CC(C)Sc1cc(C(=O)N2CS(=O)(=O)c3ccccc32)cc(C#N)c1O` [Example 35, 3-(3-cyano-4-hydroxy-5-isopropylsulfanylbenzoyl)-1,1-dioxo-2,3-dihydro-1,3-benzothiazole] are 1.5 µM and 140%.
Taken in the same sequence, the figures for `N#Cc1cc(C(=O)N2CS(=O)(=O)c3ccccc32)cc(C2CC2)c1O` [Example 13, 3-(3-cyano-5-cyclopropyl-4-hydroxybenzoyl)-1,1-dioxo-2,3-dihydro-1,3-benzothiazole] were 3.9 µM and 172%.
